The values that follow come from patent US11814680B2, “Biomarkers for detecting senescent cells” (Universität für Bodenkultur Wien, priority 2017, dated 2023).

Marks after values point to notes of the source that are not given here.

Data set [1] concerns p16-3MR mice. The data set can be described thus: Next generation sequencing of circulating miRNAs in serum after induction (dox) and removal (GCV) of senescent cells. It counts as in vivo, mouse. How it is done: p16-3MR (Demaria et al, 2014, Developmental Cell 31:722-733) mice were bred in house and maintained in the AALAC-accredited Buck Institute for Research on Aging (Novato, Calif.) animal facility. 10 to 12-week-old p16-3MR male mice were used for experiments. Mice were divided in 4 groups and each group consisted of 3 animals. In group A, control mice were injected with PBS. In group B, mice were treated with Ganciclovir (GCV) (Sigma-Aldrich) dissolved in PBS for 5 consecutive days. In group C, mice were treated with one dose of Doxorubicine hydrochloride (Sigma-Aldrich) dissolved in PBS. In group D, mice were first treated with Doxorubicine and then treated 10 days later with GCV. Mice were intraperitoneally injected with one dose of 10 mg/kg of Doxorubicine hydrochloride, and GCV was administered daily by intraperitoneal injections for 5 consecutive days at concentration of 25 mg/kg in PBS. 4 days after the last GCV dose, animals were euthanized with CO2 and blood was withdrawn immediately. Blood was then incubated for 30 min at room temperature and centrifuged at 3400×g for 10 min. Serum was carefully collected in a sterile tube without disturbing the cell pellet and stored at −80° C. for further experiments.
Total RNA extraction was performed from 200 μl of serum using the Qiagen miRNeasy™ extraction kit (Qiagen, Germany). RNA yield was quality checked for homogenous extraction efficiency and hemolysis on the basis qPCR amplification of spiked-in as well as hemolysis-responsive RNAs (Blondal et al). In total 2 μl total RNA were used for library preparation using the CleanTag library preparation protocol (Trilink Biotechnologies, USA), which uses chemically modified adapters to prevent adapter self-ligation. Library quality and yield was controlled using Bioanalyzer DNA-1000 chips. Due to the high purity, libraries were not purified prior to sequencing on an ILLUMINA™ NextSeq 500 sequencing system with 50 bp single-end reads.
Next-generation sequencing was performed at Exiqon (Denmark). Raw reads were quality filtered for a Q-score of 30 or higher. Adapter sequences were trimmed and the remaining reads were mapped against the mouse genome, miRBase, non-coding RNA databases and classified as either microRNAs, small RNAs, genome mapping RNAs or outmapped RNA sequences. Read counts were added for all microRNA isoforms (isomiRs) and normalized by dividing the microRNA read count by the total number of mapped reads and multiplying by 1 million (Tags Per Million). Tags per millions were used for data mining (PCA and hierarchical clustering) using the web-tool clustvis (Metsalu and Vilo 2015).
For differential expression analysis, the EdgeR statistical software package was used. For normalization, the trimmed mean of M-values method was used based on log-fold and absolute gene wise changes in expression levels between samples (TMM normalization). […] Additionally, the normalization step offsets under-sampling effects (due to highly expressed microRNAs dominating the read set) by identifying scaling factors that minimize log-fold changes between samples across the majority of microRNAs.
For exploratory data analysis we applied principal component analysis (PCA) to the dataset of 50 most variable microRNAs according to the coefficient of variation. The PCA plot clearly indicates an effect of […] (dox) treatment on circulating microRNA levels in p16-3MR mice compared to the PBS treated control animals (FIG. 2). […] Analysis of differentially circulating miRNAs was focused on changes between dox treated versus control (PBS) to identify those miRNAs that are modulated by induction of senescence, as well as dox-GCV vs dox, in order to identify miRNAs that change after removal of senescent cells. A p-value threshold of <0.05 without correction for multiple testing was used. […] GCV-treated animals are supposed to have a reduced number of senescent cells compared to PBS due to forced apoptosis. […]

The test system of data set [2] is p16-3MR mice. The data set is described as follows: Pearson correlation of serum miRNA levels to miR-34a-5p and miR-27a-3p. Set-up: species or system mouse. Conditions: for Pearson Correlcation coefficient miR44a-5p: correlation of serum level to miR44a-5p (so in the source); for Pearson Correlcation coefficient miR-27a-3p: correlation of serum level to miR-27a-3p. The source says:
In order to extend these finding to potential additional miRNAs, we performed Pearson correlation to miR-34a-5p and miR-27a-3p, resulting in additional potential biomarkers (Table 18).

Data set [3] concerns p16-3MR mice. The data set can be described thus: RT-qPCR verification of serum circulating microRNA changes, one-way ANOVA. Format: in vivo, mouse. Conditions: for One-way ANOVA Senolytic Treatment (DOX/GCV) / One-way ANOVA Senescence (DOX vs PBS): serum; for One-way ANOVA Senolytic Treatment (DOX/GCV): DOX/GCV compared to DOX; for One-way ANOVA Senescence (DOX vs PBS): n=8 per group, male and female mice. The method, then: p16-3MR (Demaria et al, 2014, Developmental Cell 31:722-733) mice were bred in house and maintained in the AALAC-accredited Buck Institute for Research on Aging (Novato, Calif.) animal facility. 10 to 12-week-old p16-3MR […] mice were used for experiments. Mice were divided in 4 groups and each group consisted of 8 animals, 5 female, and 3 male, respectively. In group A, control mice were injected with PBS. In group B, mice were treated with Ganciclovir (GCV) (Sigma-Aldrich) dissolved in PBS for 5 consecutive days. In group C, mice were treated with one dose of Doxorubicine hydrochloride (Sigma-Aldrich) dissolved in PBS. In group D, mice were first treated with Doxorubicine and then treated 10 days later with GCV. Mice were intraperitoneally injected with one dose of 10 mg/kg of Doxorubicine hydrochloride, and GCV was administered daily by intraperitoneal injections for 5 consecutive days at concentration of 25 mg/kg in PBS. 4 days after the last GCV dose, animals were euthanized with CO2 and blood was withdrawn immediately. Blood was then incubated for 30 min at room temperature and centrifuged at 3400×g for 10 min. Serum was carefully collected in a sterile tube without disturbing the cell pellet and stored at −80° C. for further experiments.
Total RNA extraction was performed from 200 μl of serum using the Qiagen miRNeasy extraction kit (Qiagen, Germany). RNA yield was quality checked for homogenous extraction efficiency and hemolysis on the basis qPCR amplification of spiked-in as well as hemolysis-responsive RNAs (Blondal et al). In total 2 μl total RNA were used for reverse transcription using the Exiqon Universal RT kit II (Exiqon, Denmark). The obtained cDNA samples were pre-diluted 1:40 and subsequently mixed with SYBR Green® Mix (Exiqon, Denmark) to achieve a 1:100 dilution. The mix was distributed to primer-coated 384-well plates containing dried primer pairs for 96 selected microRNA or quality control assays. QPCR amplification was performed on a Roche LightCycler 480 II, using the manufacturer's recommendation for annealing, extension and denaturation.
Raw Cq-values were computed using the 2nd derivative method. Melting curves were checked for peaks to ensure specificity of the amplification reactions. Cq-values were subsequently normalized using Spike-In controls as references, to reduce technical noise in the data.
(§1) Statistical analysis was performed using Medcalc (version 18.2.1). Normal distribution was assessed using D'Agostino-Pearson test, where normality was accepted at p>0.05. One-way ANOVA together together with Student-Newman-Keuls test for all pairwise comparisons (post-hoc tests) was used to identify significant changes between groups (p<0.05). To assess the discriminatory power of individual microRNAs, receiver operating characteristic (ROC) analysis was applied. ROC curves were plotted using sensitivity (y-axis) and 1-specificity (x-axis) and the area under the ROC curve (AUC) was calculated. MicroRNAs with AUC-values of >0.7 were considered as good discriminators/biomarkers. MicroRNAs with AUC-values >0.8 were considered very good discriminators/biomarkers.
In general terms: Quantitative PCR measures a nucleic acid by following its amplification.

Data set [4] deals with p16-3MR mice. The data set can be described thus: ROC analysis of discriminatory power of circulating microRNAs. Format: in vivo, mouse. Conditions: serum, RT-qPCR, symbol after the number = significance; for ROC Analysis AUC Senescence: DOX vs PBS; for ROC Analysis AUC Senolytic Treatment: DOX/GCV vs DOX. The method, then:
as §1
In order to assess the diagnostic power of circulating microRNAs for the exposure with senescence inducing substances (DOX) as well as the efficacy of senolytic treatment, ROC analysis was performed and the area-under-the-curve (AUC) was calculated. […] Table 23 below summarizes AUC values as well as 95% confidence intervals for 24 selected circulating microRNAs.

Regarding `COc1cccc2c1C(=O)c1c(O)c3c(c(O)c1C2=O)C[C@@](O)(C(=O)CO)C[C@@H]3O[C@H]1C[C@H](N)[C@H](O)[C@H](C)O1.Cl` [Doxorubicine hydrochloride, reference compound], the “circulating miRNA levels upon induction of senescence” value in the data set on p16-3MR mice [1] (PCA of 50 most variable microRNAs, compared to PBS, in words) was “significantly changed”.

As to `Nc1nc(O)c2ncn(COC(CO)CO)c2n1` [ganciclovir, Ganciclovir, reference compound], the “serum miRNAs compared to PBS treated animals” value with p16-3MR mice [1] (GCV 25 mg/kg i.p. for 5 days, in words) is reported as “consistent decrease”.

Consider “miR-24-3p: circulating microRNA biomarker, SEQ ID No. 21 (UGGCUCAGUUCAGCAGGAACAG; expressed or natural sequence; listed as Homo sapiens)”, for which, in the data set on p16-3MR mice [2], the “Pearson Correlcation coefficient miR44a-5p” value is reported as 0.61 and the “Pearson Correlcation coefficient miR-27a-3p” value turned out to be 0.89. Moreover, the “change of serum level following senolytic treatment (DOX/GCV compared to DOX)” value in the data set with p16-3MR mice [3] (p<0.05, in words) was “significantly changed”. In addition, in the data set with p16-3MR mice [3], the “One-way ANOVA Senolytic Treatment (DOX/GCV)” value is “* (significant p < 0.05)” and the “One-way ANOVA Senescence (DOX vs PBS)” value is listed as “○”. In addition, in the data set with p16-3MR mice [4], the “ROC Analysis AUC Senescence” value came out at 0.609° and the “ROC Analysis AUC Senolytic Treatment” value is 0.789*.

“miR-151-5p: circulating microRNA biomarker, SEQ ID No. 17 (UCGAGGAGCUCACAGUCUAGU; expressed or natural sequence; listed as Homo sapiens)”: in the data set on p16-3MR mice [2], the “Pearson Correlcation coefficient miR44a-5p” value was 0.73 and the “Pearson Correlcation coefficient miR-27a-3p” value turned out to be 0.37. Further, in the data set on p16-3MR mice [3] (independent of gender, in words), the “regulation in serum after exposure to DOX compared to PBS” value is recorded as “significantly (up- or down-regulated)”. In the data set on p16-3MR mice [3], the “One-way ANOVA Senolytic Treatment (DOX/GCV)” value is recorded as “○” and the “One-way ANOVA Senescence (DOX vs PBS)” value is listed as “* (significant p < 0.05)”. Further, in the data set with p16-3MR mice [4], the “ROC Analysis AUC Senescence” value is 0.828* and the “ROC Analysis AUC Senolytic Treatment” value was 0.609°.

As to “mmu-let-7f-5p: circulating microRNA, SEQ ID No. 2 (UGAGGUAGUAGAUUGUAUAGUU; expressed or natural sequence; listed as Homo sapiens)”, the log fold change in the data set on p16-3MR mice [1] (serum miRNA, NGS, dox vs pbs, p16-3MR mice) is recorded as −1.29. For the same molecule, the “avg TPM dox” value in the data set with p16-3MR mice [1] (serum miRNA, NGS, dox-treated p16-3MR mice) was 178.25 TPM.

With “mmu-miR-10a-3p: circulating microRNA, SEQ ID No. 16 (CAAAUUCGUAUCUAGGGGAAUA; expressed or natural sequence; listed as Homo sapiens)”, in the data set on p16-3MR mice [2], the “Pearson Correlcation coefficient miR44a-5p” value was 0.52 and the “Pearson Correlcation coefficient miR-27a-3p” value was 0.90.

With “mmu-miR-29a-3p: circulating microRNA, SEQ ID No. 22 (UAGCACCAUCUGAAAUCGGUUA; expressed or natural sequence; listed as Homo sapiens)”, in the data set with p16-3MR mice [2], the “Pearson Correlcation coefficient miR44a-5p” value was 0.74 and the “Pearson Correlcation coefficient miR-27a-3p” value was found to be 0.74.

Take “mmu-miR-30b-5p: circulating microRNA, SEQ ID No. 9 (UGUAAACAUCCUACACUCAGCU; expressed or natural sequence; listed as Homo sapiens)”: in the data set with p16-3MR mice [2], the “Pearson Correlcation coefficient miR44a-5p” value is listed as 0.70 and the “Pearson Correlcation coefficient miR-27a-3p” value stood at 0.65.

With “mmu-miR-191-5p: circulating microRNA, SEQ ID No. 18 (CAACGGAAUCCCAAAAGCAGCUG; expressed or natural sequence; listed as Homo sapiens)”, in the data set on p16-3MR mice [2], the “Pearson Correlcation coefficient miR44a-5p” value is reported as 0.32 and the “Pearson Correlcation coefficient miR-27a-3p” value was 0.81.

Take “mmu-miR-223-3p: circulating microRNA, SEQ ID No. 19 (UGUCAGUUUGUCAAAUACCCCA; expressed or natural sequence; listed as Homo sapiens)”: in the data set with p16-3MR mice [2], the “Pearson Correlcation coefficient miR44a-5p” value was determined as 0.55 and the “Pearson Correlcation coefficient miR-27a-3p” value is 0.83.

For “mmu-miR-339-5p: circulating microRNA, SEQ ID No. 10 (UCCCUGUCCUCCAGGAGCUCACG; expressed or natural sequence; listed as Homo sapiens)”, in the data set with p16-3MR mice [2], the “Pearson Correlcation coefficient miR44a-5p” value amounted to 0.64 and the “Pearson Correlcation coefficient miR-27a-3p” value is on record as 0.87.

Turning to “mmu-miR-652-3p: circulating microRNA, SEQ ID No. 13 (AAUGGCGCCACUAGGGUUGUG; expressed or natural sequence; listed as Homo sapiens)”, in the data set on p16-3MR mice [2], the “Pearson Correlcation coefficient miR44a-5p” value is 0.77 and the “Pearson Correlcation coefficient miR-27a-3p” value worked out at 0.66.

On to “mmu-miR-3058-3p: circulating microRNA, SEQ ID No. 8 (UUCCUGUCAGCCGUGGGUGCC; expressed or natural sequence; listed as Homo sapiens)”, for which, in the data set on p16-3MR mice [2], the “Pearson Correlcation coefficient miR44a-5p” value worked out at 0.80 and the “Pearson Correlcation coefficient miR-27a-3p” value amounted to 0.54.

With “mmu-miR-6395: circulating microRNA, SEQ ID No. 12 (CUGGCCCUCUCUGCCCUGUUUA; expressed or natural sequence; listed as Homo sapiens)”, in the data set with p16-3MR mice [2], the “Pearson Correlcation coefficient miR44a-5p” value turned out to be 0.61 and the “Pearson Correlcation coefficient miR-27a-3p” value is listed as 0.81.
